Test results taken from US8772478B2, “Benzenesulfonamide compounds, method for synthesizing same, and use thereof in medicine as well as in cosmetics” (Galderma Research & Development, priority 2009, dated 2014).

How the values were obtained:
[1] = tested on: TACE enzyme; conditions: from WO 00/44709, table 10, example 61; cited from earlier work
[2] = target: MMP3 (Homo sapiens (Human), UniProt P08254); test: Selectivity assay MMP3; type: biochemical
[3] = target: TACE enzyme (Homo sapiens, UniProt P78536); test: Enzymatic assay for TACE inhibition; type: biochemical; conditions: for % TACE inhibition at 10 μM: 10 μM compound
[4] = target: MMP9 (Homo sapiens (Human), UniProt P14780); test: Selectivity assay MMP9; type: biochemical
[5] = target: ADAM9 (Homo sapiens (Human), UniProt Q13443); test: Selectivity assay ADAM9; type: biochemical
[6] = target: MMP1 (Homo sapiens (Human), UniProt P03956); test: Selectivity assay MMP1; type: biochemical
[7] = target: ADAM10 (Homo sapiens (Human), UniProt O14672); test: Selectivity assay ADAM10; type: biochemical
[8] = fluorescent substrate 40 μM, pH 7.4

TACE enzyme (Homo sapiens, UniProt P78536), sequence (P78536 215-824 limits assumed): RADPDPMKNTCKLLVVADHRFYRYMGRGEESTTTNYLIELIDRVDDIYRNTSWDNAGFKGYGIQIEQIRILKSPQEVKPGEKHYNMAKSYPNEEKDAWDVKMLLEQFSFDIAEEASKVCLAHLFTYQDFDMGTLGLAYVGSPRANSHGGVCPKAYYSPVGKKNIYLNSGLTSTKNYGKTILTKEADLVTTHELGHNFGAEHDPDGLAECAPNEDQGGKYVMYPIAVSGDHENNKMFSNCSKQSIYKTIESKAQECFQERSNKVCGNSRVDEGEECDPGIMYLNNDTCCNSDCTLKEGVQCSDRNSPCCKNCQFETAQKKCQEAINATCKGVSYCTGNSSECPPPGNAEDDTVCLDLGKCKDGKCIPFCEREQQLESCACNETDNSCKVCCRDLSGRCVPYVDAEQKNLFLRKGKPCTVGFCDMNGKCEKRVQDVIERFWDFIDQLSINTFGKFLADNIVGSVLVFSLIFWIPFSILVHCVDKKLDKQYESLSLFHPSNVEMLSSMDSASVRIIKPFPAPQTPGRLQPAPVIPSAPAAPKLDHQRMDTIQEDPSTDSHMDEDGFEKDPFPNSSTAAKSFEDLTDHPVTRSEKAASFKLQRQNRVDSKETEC
MMP3, sequence (P08254 100-477, species assumed): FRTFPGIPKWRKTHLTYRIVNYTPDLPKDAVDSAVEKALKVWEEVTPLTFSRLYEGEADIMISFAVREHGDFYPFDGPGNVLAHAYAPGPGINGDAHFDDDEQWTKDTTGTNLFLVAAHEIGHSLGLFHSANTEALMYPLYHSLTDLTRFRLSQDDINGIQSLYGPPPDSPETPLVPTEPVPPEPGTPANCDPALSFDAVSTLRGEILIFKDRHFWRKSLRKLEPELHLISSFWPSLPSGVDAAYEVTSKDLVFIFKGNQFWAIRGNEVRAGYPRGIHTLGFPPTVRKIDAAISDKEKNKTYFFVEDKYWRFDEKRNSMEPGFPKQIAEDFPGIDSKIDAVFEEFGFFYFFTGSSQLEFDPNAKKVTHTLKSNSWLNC
ADAM10, sequence (O14672 214-748, species assumed): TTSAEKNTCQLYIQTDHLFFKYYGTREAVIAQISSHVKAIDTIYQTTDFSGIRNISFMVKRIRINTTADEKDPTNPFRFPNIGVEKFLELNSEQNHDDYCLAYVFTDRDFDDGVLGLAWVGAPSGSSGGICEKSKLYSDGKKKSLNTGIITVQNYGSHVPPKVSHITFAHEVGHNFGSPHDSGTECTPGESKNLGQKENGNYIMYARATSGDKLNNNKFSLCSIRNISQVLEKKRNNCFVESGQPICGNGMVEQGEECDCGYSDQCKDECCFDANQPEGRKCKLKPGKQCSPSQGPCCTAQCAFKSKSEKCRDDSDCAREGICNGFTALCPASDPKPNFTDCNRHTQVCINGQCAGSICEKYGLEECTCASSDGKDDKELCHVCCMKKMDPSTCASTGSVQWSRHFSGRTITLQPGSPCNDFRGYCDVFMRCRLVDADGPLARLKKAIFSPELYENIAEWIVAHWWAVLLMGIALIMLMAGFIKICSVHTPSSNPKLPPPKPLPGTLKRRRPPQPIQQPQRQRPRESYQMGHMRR
MMP9, sequence (P14780 94-707, species assumed): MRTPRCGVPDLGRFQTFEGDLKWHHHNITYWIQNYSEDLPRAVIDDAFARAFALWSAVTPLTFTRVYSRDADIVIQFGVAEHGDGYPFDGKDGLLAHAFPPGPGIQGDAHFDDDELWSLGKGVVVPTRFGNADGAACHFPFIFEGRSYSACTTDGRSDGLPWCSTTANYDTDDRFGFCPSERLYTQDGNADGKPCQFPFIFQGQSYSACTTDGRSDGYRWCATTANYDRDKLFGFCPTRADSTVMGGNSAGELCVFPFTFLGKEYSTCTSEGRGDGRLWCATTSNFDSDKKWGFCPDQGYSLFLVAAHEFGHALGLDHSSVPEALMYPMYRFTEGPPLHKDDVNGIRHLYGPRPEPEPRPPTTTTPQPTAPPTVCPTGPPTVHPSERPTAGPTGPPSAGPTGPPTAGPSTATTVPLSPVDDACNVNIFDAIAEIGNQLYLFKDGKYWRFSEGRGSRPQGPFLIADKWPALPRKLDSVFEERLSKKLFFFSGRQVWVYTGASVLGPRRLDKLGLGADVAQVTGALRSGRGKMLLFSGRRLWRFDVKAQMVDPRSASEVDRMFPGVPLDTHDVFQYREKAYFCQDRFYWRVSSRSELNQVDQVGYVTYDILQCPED
ADAM9, sequence (Q13443 29-819, species assumed): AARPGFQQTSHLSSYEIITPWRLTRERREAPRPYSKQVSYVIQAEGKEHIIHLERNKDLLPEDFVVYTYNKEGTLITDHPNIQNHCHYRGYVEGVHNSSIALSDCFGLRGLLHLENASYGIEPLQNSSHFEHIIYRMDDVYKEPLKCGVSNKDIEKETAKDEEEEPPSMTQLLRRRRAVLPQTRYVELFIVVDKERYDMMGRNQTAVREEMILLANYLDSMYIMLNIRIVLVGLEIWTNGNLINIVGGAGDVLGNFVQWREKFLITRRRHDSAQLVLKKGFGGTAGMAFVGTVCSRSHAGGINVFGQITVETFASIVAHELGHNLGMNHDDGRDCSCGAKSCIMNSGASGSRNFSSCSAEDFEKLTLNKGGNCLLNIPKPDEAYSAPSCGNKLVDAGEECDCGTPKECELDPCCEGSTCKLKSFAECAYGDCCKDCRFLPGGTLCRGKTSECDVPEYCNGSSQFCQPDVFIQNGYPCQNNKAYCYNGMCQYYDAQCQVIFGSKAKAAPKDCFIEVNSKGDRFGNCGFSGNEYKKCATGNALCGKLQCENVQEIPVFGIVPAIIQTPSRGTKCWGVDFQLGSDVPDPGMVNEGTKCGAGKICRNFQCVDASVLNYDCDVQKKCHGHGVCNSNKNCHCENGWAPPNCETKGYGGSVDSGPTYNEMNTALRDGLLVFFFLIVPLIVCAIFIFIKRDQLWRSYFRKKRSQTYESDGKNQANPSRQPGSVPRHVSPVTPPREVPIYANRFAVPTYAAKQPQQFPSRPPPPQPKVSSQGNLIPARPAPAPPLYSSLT
MMP1, sequence (P03956 100-469, species assumed): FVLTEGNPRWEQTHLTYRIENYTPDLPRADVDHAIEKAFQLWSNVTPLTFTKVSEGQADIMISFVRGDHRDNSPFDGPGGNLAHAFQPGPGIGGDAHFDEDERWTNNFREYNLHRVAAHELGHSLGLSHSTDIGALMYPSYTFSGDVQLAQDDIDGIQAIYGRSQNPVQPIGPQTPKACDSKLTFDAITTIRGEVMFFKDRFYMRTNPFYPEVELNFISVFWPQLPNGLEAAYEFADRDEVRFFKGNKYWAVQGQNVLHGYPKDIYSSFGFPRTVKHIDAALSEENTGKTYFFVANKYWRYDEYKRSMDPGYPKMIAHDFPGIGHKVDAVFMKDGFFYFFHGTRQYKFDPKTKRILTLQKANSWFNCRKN

| % TACE inhibition at 10 μM [3] [%] | IC50 [3, 8] [nM] | Compound | further results |
| --- | --- | --- | --- |
| 97 | 181 | O=C(NO)[C@H](CNS(=O)(=O)c1ccc(OCc2ccc(F)cc2)cc1)N1CCCCC1 [Example 3, (S)-3-[4-(4-fluorobenzyloxy)benzenesulfonylamino]-N-hydroxy-2-piperidin-1-ylpropionamide] | – |
| 97 | 328 | O=C(NO)[C@H](CNS(=O)(=O)c1ccc(OCc2ccc(Cl)c(Cl)c2)cc1)N1CCCCC1 [Example 6, (S)-3-[4-(3,4-dichlorobenzyloxy)benzenesulfonylamino]-N-hydroxy-2-piperidin-1-ylpropionamide] | – |
| 99 | 469 | O=C(NO)[C@H](CNS(=O)(=O)c1ccc(OCc2cc(Cl)cc(Cl)c2)cc1)N1CCCCC1 [Example 9, (S)-3-[4-(3,5-dichlorobenzyloxy)benzenesulfonylamino]-N-hydroxy-2-piperidin-1-ylpropionamide] | – |

Further lines, the compound ahead of its results:

| Compound | % TACE inhibition at 10 μM [3] [%] | IC50 [3, 8] [nM] | further results |
| --- | --- | --- | --- |
| CC1(C)SCCN(S(=O)(=O)c2ccc(OCC#CCO)cc2)[C@H]1C(=O)NO [Apratastat] | – | – | selectivity for the TACE enzyme compared with certain MMPs [1]: not selective |
| Cc1cc(COc2ccc(S(=O)(=O)NC[C@@H](C(=O)NO)N3CCOCC3)cc2)c2ccccc2n1 [Example 14, (S)—N-hydroxy-3-[4-(2-methylquinolin-4-ylmethoxy)benzenesulfonylamino]-2-morpholin-4-ylpropionamide] | 91 | 38 | IC50 [2]: 3030 nM; IC50 ([3]; as listed in selectivity assay table): 24 nM |
| Cc1cc(COc2ccc(S(=O)(=O)NC[C@@H](C(=O)NO)N3CCCCC3)cc2)c2ccccc2n1.Cl.Cl [Example 15, (S)—N-hydroxy-3-[4-(2-methylquinolin-4-ylmethoxy)benzenesulfonylamino]-2-piperidin-1-ylpropionamide dihydrochloride] | 98 | – | – |
| O=C(NO)[C@H](CNS(=O)(=O)c1ccc(OCc2ccccc2)cc1)N1CCCCC1 [Example 1, (S)-3-(4-benzyloxybenzenesulfonylamino)-N-hydroxy-2-piperidin-1-ylpropionamide] | 98 | 181 | – |
| O=C(NO)[C@H](CNS(=O)(=O)c1ccc(OCc2ccc3ccccc3c2)cc1)N1CCCCC1 [Example 5, (S)—N-Hydroxy-3-[4-(naphthalen-2-ylmethoxy)benzenesulfonylamino]-2-piperidin-1-ylpropionamide] | 97 | 249 | – |
| O=C(NO)[C@H](CNS(=O)(=O)c1ccc(OCc2ccccc2)cc1)N1CCOCC1 [Example 7, (S)-3-(4-benzyloxybenzenesulfonylamino)-N-hydroxy-2-morpholin-4-ylpropionamide] | 98 | 147 | – |
| O=C(NO)[C@H](CNS(=O)(=O)c1ccc(OCc2ccccc2)cc1)N1CCCC1 [Example 2, (S)-3-(4-benzyloxybenzenesulfonylamino)-N-hydroxy-2-pyrrolidin-1-ylpropionamide] | 95 | 298 | – |
| Cc1cc(COc2ccc(S(=O)(=O)NC[C@@H](C(=O)NO)N3CCCCC3)cc2)c2ccccc2n1 [Example 8, (S)—N-hydroxy-3-[4-(2-methylquinolin-4-ylmethoxy)benzenesulfonylamino]-2-piperidin-1-ylpropionamide] | 99 | – | IC50 [4]: > 10000 nM; IC50 [5]: > 10000 nM; IC50 [6]: 3000 nM; IC50 [2]: 4500 nM; IC50 [7]: > 10000 nM |
